Data as given in patent US20180193412A1, “Method of In Vivo Treatment” (Hexima Limited, priority 2015, published 2018).

What was measured:
T. rubrum = test: Inhibition of growth of Trichophyton rubrum by plant defensins (microtitre A595 antifungal assay); assay type: cell-based; settings: ½ strength PDB, 30° C.
Method: (§1) The inhibitory effects of the plant defensins on the growth of Trichophyton rubrum, T. interdigitale, Microsporum fulvum and C. albicans (all obtained from the National Mycology Reference Centre, South Australia Pathology at the Women's and Children's Hospital, Adelaide, Australia) are measured essentially as described by Broekaert et al. (1990) FEMS Microbiol Lett 69:55-59.
(§2) Spores of T. rubrum, T. interdigitale and M. fulvum are isolated from sporulating fungus growing on ½ strength Sabouraud dextrose agar. Spores were removed from the plates by the addition of ½ strength potato dextrose broth (PDB). C. albicans cells are grown in Yeast Peptone Broth (YPD) for 16 h. Spore and cell concentrations are measured using a hemocytometer.
(§3) Antifungal assays are conducted in 96 well microtitre plates essentially as herein described. Wells are loaded with 20 μL of filter sterilized (0.22 Ξ m syringe filter, Millipore) defensin (10× stock for each final concentration) or water and 80 μL of 5×10^4 spores/mL (T. rubrum, T. interdigitale, M. fulvum) or 5,000 cells/mL (C. albicans) in ½ strength PDB. The plates are incubated at 30° C. Fungal growth is assayed by measuring optical density at 595 nm (A595) using a microtitre plate reader (SpectraMax Pro M2; Molecular Devices. Growth is allowed to proceed until the optical density (OD) of the fungus in the absence of any test defensin reached an OD of 0.2. Each test is performed in duplicate.

M. fulvum = test: Inhibition of growth of Microsporum fulvum by plant defensins (microtitre A595 antifungal assay); assay type: cell-based; settings: ½ strength PDB, 30° C., A595
Method: as §1, §2, §3

T. interdigitale = test: Inhibition of growth of T. interdigitale by plant defensins (microtitre A595 antifungal assay); assay type: cell-based, Trichophyton interdigitale; settings: ½ strength PDB, 30° C.
Method: as §1, §2, §3

T. albicans = test: Inhibition of growth of C. albicans by plant defensins, Example 1 (microtitre A595 antifungal assay); assay type: cell-based; settings: Table 3; ½ strength PDB, 30° C., A595
Method: as §1, §2, §3

[1] = system: clinical isolates of T. rubrum; test: Cell survival assay for clinical isolates of T. rubrum (plating on agar after defensin treatment, FIG. 3); assay type: cell-based, Trichophyton rubrum
Method: FIG. 3(A) is a photographic representations of surviving colonies of T. rubrum clinical isolate 14-01 grown on agar plates after treatment with 100 μM HXL008 for 72 h.
FIG. 3(B) is a photographic representation of surviving colonies of T. rubrum clinical isolate 14-02 grown on agar plates after treatment with 100 μM HXL008 for 72 h.
FIG. 3(C) is a photographic representation of surviving colonies of T. rubrum clinical isolate 14-03 grown on agar plates after treatment with 100 μM HXL008 for 72 h.
FIG. 3(D) is a photographic representation of surviving colonies of T. rubrum clinical isolate 13-04 grown on agar plates after treatment with 100 μM HXL008 for 72 h.
After incubation for 72 h, the media from wells containing clinical isolates of T. rubrum incubated with 100 […] HXL008 was plated onto fresh Sabouraud dextrose agar. Plates were incubated at 30° C. for 5 days to allow colonies to develop before being photographed.

C. albicans = test: Inhibition of growth of Candida albicans, Example 2 antifungal assay; assay type: cell-based; settings: Table 4; ½ strength PDB, 30° C., A595
Method: (§4) The inhibitory effects of the plant defensins on the growth of Candida albicans, Aspergillus fumigatus (obtained from the National Mycology Reference Centre, South Australia Pathology at the Women's and Children's Hospital, Adelaide, Australia), C. glabrata, C. tropicalis, A. flavus, A. niger, A. fumigants, Cryptococcus neoformans and C. gattii (obtained from Dee Carter, University of Sydney, New South Wales, Australia) are measured essentially as described by Broekaert et al. (1990) FEMS Microbiol Lett 69:55-59.
as §2, with “A. flavus. A. niger” for “T. rubrum, T. interdigitale”, “A. fumigatus” for “M. fulvum”, “albicans, C. glabrata, C. tropicalis, C. neoformans and C. gattii” for “albicans”
as §3, with “μm” for “Ξ m”, “(A. flavus, A. niger, A. fumigatus),” for “(T. rubrum, T. interdigitale, M. fulvum) or”, “albicans, C. glabrata, C. tropicalis) or 1×10^6 cells/mL (C. neoformans, C. gattii)” for “albicans)”

C. glabrata = test: Inhibition of growth of C. glabrata, Example 2 antifungal assay; assay type: cell-based; settings: ½ strength PDB, 30° C., A595
Method: as §4
as §2, with “A. flavus. A. niger” for “T. rubrum, T. interdigitale”, “A. fumigatus” for “M. fulvum”, “albicans, C. glabrata, C. tropicalis, C. neoformans and C. gattii” for “albicans”
as §3, with “μm” for “Ξ m”, “(A. flavus, A. niger, A. fumigatus),” for “(T. rubrum, T. interdigitale, M. fulvum) or”, “albicans, C. glabrata, C. tropicalis) or 1×10^6 cells/mL (C. neoformans, C. gattii)” for “albicans)”

A. flavus = test: Inhibition of growth of A. flavus, Example 2 antifungal assay; assay type: cell-based; settings: ½ strength PDB, 30° C., A595
Method: as §4
as §2, with “A. flavus. A. niger” for “T. rubrum, T. interdigitale”, “A. fumigatus” for “M. fulvum”, “albicans, C. glabrata, C. tropicalis, C. neoformans and C. gattii” for “albicans”
as §3, with “μm” for “Ξ m”, “(A. flavus, A. niger, A. fumigatus),” for “(T. rubrum, T. interdigitale, M. fulvum) or”, “albicans, C. glabrata, C. tropicalis) or 1×10^6 cells/mL (C. neoformans, C. gattii)” for “albicans)”

A. niger = test: Inhibition of growth of A. niger, Example 2 antifungal assay; assay type: cell-based; settings: ½ strength PDB, 30° C., A595
Method: as §4
as §2, with “A. flavus. A. niger” for “T. rubrum, T. interdigitale”, “A. fumigatus” for “M. fulvum”, “albicans, C. glabrata, C. tropicalis, C. neoformans and C. gattii” for “albicans”
as §3, with “μm” for “Ξ m”, “(A. flavus, A. niger, A. fumigatus),” for “(T. rubrum, T. interdigitale, M. fulvum) or”, “albicans, C. glabrata, C. tropicalis) or 1×10^6 cells/mL (C. neoformans, C. gattii)” for “albicans)”

A. fumigatus = test: Inhibition of growth of Aspergillus fumigatus, Example 2 antifungal assay; assay type: cell-based; settings: ½ strength PDB, 30° C., A595
Method: as §4
as §2, with “A. flavus. A. niger” for “T. rubrum, T. interdigitale”, “A. fumigatus” for “M. fulvum”, “albicans, C. glabrata, C. tropicalis, C. neoformans and C. gattii” for “albicans”
as §3, with “μm” for “Ξ m”, “(A. flavus, A. niger, A. fumigatus),” for “(T. rubrum, T. interdigitale, M. fulvum) or”, “albicans, C. glabrata, C. tropicalis) or 1×10^6 cells/mL (C. neoformans, C. gattii)” for “albicans)”

E. coli = assay type: cell-based, Escherichia coli
Method: A single E. coli or B. subtilis colony was used to inoculate 5 ml of Luria-Bertani media and grown overnight at 37° C. The following day, the optical density of the culture was measured and the bacteria diluted to an optical density at 600 nm (OD600) of 0.01 in Mueller-Hinton Broth. Diluted E. coli or B. subtilis were added to 96-well plates with defensins at concentrations of 20 μM, 10 μM, 5 μM, 2.5 μM, 1.25 μM, 0.625 μM or 0.3125 μM. Plates were read at OD595 to obtain time zero data points. Plates were incubated at 37° C. for 18 hours before reading again at OD595 to assess the amount of bacterial growth.

[2] = system: Trichophyton rubrum, T. interdigitale, Microsporum fulvum and C. albicans; test: Inhibition assays of Example 1, summary across the range of fungal pathogens; assay type: cell-based; settings: summary of Table 3, at the concentrations tested
Method: as §1, §2, §3

## HXL008: Class I plant defensin from Picramnia pentandra (KVCTKPSKFFKGLCGTDGACTTACRKEGLHSGYCQLKGFLNSVCVCRKHC; HXL008 Picramnia pentandra)
T. rubrum
  IC50 against T. rubrum: 3 µg/mL
M. fulvum
  IC50 against M. fulvum: 7 µg/mL
T. interdigitale
  IC50 against T. interdigitale: 3.5 µg/mL
T. albicans
  IC50 against T. albicans: 20 µg/mL
[1]; 100 µg/mL HXL008 for 72 h, plated, 30° C. for 5 days
  Surviving colonies on agar plates after incubation with defensin: 1-3 colonies
[1]; incubated with HXL008 for 72 h
  Cell survival of T. rubrum clinical isolates: almost all the cells were dead
C. albicans
  IC50 against C. albicans: 20 µg/mL
C. glabrata
  IC50 against C. glabrata: 20 µg/mL
A. flavus
  IC50 against A. flavus: 40 µg/mL
A. niger
  IC50 against A. niger: 42 µg/mL
A. fumigatus
  IC50 against A. fumigatus: 7.5 µg/mL
E. coli; Mueller-Hinton Broth, 37° C., 18 hours, up to 20 μM, read-out: IC50 against E. coli
  IC50: > 20 µM
E. coli; at the concentrations tested (0.3125-20 μM)
  Inhibition of growth of E. coli: did not inhibit the growth
[2]
  Activity across the range of fungal pathogens: most effective
